Patent publication US8148422B2, “Sulfonamides as TRPM8 modulators” (Janssen Pharmaceutica, NV, priority 2008, dated 2012)
Read-outs that look alike come from different tables or passages of the source.

Columns and labels:
canine TRPM8 = molecular target: T1, canine TRPM8 (Canis lupus familiaris, UniProt Q1A7N1); test: In vitro canine TRPM8 functional assay (Ca2+-sensitive fluorescent dye, FLIPR or FDSS, icilin challenge); assay type: cell-based; details: for inhibition at 0.2 µM: 0.2 μM compound
T1 construct: expressed in transfected cells
T1 sequence (Q1A7N1 1-1104): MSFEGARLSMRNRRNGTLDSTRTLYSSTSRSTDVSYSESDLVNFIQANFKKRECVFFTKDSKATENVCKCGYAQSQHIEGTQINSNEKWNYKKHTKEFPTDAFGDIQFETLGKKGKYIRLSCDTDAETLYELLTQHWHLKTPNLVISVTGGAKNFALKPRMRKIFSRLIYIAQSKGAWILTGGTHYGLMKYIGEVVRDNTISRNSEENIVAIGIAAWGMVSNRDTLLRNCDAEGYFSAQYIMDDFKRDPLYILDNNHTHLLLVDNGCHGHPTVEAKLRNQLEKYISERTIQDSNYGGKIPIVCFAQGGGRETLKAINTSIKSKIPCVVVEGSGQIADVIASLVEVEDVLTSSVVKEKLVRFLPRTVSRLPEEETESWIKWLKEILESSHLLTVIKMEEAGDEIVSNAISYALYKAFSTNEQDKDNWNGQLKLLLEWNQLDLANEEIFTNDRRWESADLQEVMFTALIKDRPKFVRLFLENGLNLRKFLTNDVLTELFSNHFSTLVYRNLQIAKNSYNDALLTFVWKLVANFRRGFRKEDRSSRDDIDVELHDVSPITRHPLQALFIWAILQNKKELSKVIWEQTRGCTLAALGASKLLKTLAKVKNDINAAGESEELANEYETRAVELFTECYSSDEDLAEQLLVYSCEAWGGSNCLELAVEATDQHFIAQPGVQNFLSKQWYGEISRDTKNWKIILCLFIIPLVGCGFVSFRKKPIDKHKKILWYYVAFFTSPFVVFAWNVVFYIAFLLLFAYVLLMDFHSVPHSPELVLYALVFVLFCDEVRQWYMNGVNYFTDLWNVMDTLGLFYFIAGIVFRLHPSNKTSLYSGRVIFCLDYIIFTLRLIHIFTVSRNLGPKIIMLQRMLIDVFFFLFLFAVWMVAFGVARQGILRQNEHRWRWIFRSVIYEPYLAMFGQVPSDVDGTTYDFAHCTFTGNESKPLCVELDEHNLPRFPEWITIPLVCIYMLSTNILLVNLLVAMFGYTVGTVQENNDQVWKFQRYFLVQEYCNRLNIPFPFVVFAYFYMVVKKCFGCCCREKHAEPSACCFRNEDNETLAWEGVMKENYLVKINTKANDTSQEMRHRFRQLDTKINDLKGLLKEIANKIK
Procedure, shortened: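 Cells (HEK293, stable canine TRPM8) are seeded 24 h before assay. They are then dye-loaded with Calcium 3 at 37 °C followed by room temperature. Compound is added and monitored for 5 min, after which icilin (~80% maximal response) is added.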

[1] = tested on: icilin-induced "wet-dog" shakes (WDS); test: Inhibition of icilin-induced "wet-dog" shakes in rats; assay type: in vivo; details: HCl salt, 10 mpk PO, vehicle HPbCD; male Sprague Dawley rats; [1-(test compound WDS count/vehicle WDS count)]x100
Experimental: Male Sprague Dawley rats (220-450 g, Charles River Labs, n=6-9/treatment) were used to evaluate the ability of compounds selected from the group consisting of formula (I) and formula (II) to block icilin-induced “wet-dog” shakes (WDS). Compounds selected from the group consisting of formula (I) and formula (II) were administered in an appropriate vehicle, such as hydroxypropyl-β-cyclodextrin (HPβCD), methocellulose, 10% Solutol, or H2O, or the like, by the appropriate route, i.p. or p.o., 30-120 minutes before icilin. Icilin was administered in PEG-400 or 10% solutol/H2O, at 1.0 or 3.0 mg/kg, i.p. and spontaneous “wet-dog” shakes were counted 10-20 minutes post-icilin. Results are presented as a percent inhibition of shakes, which was calculated as [1−(test compound WDS count/vehicle WDS count)]×100.

[2] = HEK293 cells stably expressing canine TRPM8, icilin challenge
[3] = HEK293 cells stably expressing canine TRPM8, icilin at approx. 80% maximal response, eight-point dose-response, single determinations unless otherwise noted, read-out: IC50

| inhibition at 0.2 µM (canine TRPM8; [2]) | IC50 (canine TRPM8; [3]) | IC50 (canine TRPM8) | IC50 (canine TRPM8; IC50, determination of HCl salt, HEK293 cells stably expressing canine TRPM8, icilin challenge) | inhibition at 0.2 µM (canine TRPM8; determination of HCl salt) | Compound | % Inhibition (of wet-dog shakes) [1] |
| --- | --- | --- | --- | --- | --- | --- |
| 101% | 6 nM | – | – | – | Cc1c(N(Cc2ccc(OC(F)(F)F)cc2)S(=O)(=O)CCN(CC(C)C)CC(C)C)sc2ccccc12 [Cpd 16, N-(3-Methylbenzo[b]thiophen-2-yl)-N-(4-trifluoromethoxy-benzyl)-2-(diisobutylamino)ethylsulfonamide] | 0% |
| 102% | 16 nM | – | – | – | Cc1c(N(Cc2ccc(OC(F)(F)F)cc2)S(=O)(=O)CCN(C)Cc2ccccc2)sc2ccccc12 [Cpd 14, N-(3-Methylbenzo[b]thiophen-2-yl)-N-(4-trifluoromethoxy-benzyl)-2-(benzyl-methylamino)ethylsulfonamide] | 0% |
| 100% | – | 29 nM | 26 nM | 100% | Cc1c(N(Cc2ccc(OC(F)(F)F)cc2)S(=O)(=O)CCN2CCC(c3ccccc3)CC2)sc2ccccc12 [Cpd 25, N-(3-Methylbenzo[b]thiophen-2-yl)-N-(4-trifluoromethoxy-benzyl)-2-(4-phenylpiperidin-1-yl)ethylsulfonamide] | 12.7% |
| 100% | 26 nM | – | – | – | Cc1c(N(Cc2ccc(F)c(F)c2)S(=O)(=O)CCN(CC(C)C)CC(C)C)sc2ccccc12 [Cpd 80, N-(3-Methylbenzo[b]thiophen-2-yl)-N-(3,4-difluoro-benzyl)-2-(di-iso-butylamino)ethylsulfonamide] | 0% |
| 100% | 18 nM | – | – | – | Cc1c(N(CCCCC(F)(F)F)S(=O)(=O)CCN(CC(C)C)CC(C)C)sc2ccccc12 [Cpd 78, N-(3-Methylbenzo[b]thiophen-2-yl)-N-(5,5,5-trifluoro-n-pent-1-yl)-2-(di-iso-butylamino)ethylsulfonamide] | 3% |
| 96% | 33 nM | – | – | – | Cc1c(N(Cc2ccc(OC(F)(F)F)cc2)S(=O)(=O)CCN2CCN(c3ccccc3)CC2)sc2ccccc12 [Cpd 30, N-(3-Methylbenzo[b]thiophen-2-yl)-N-(4-trifluoromethoxy-benzyl)-2-(4-phenylpiperazin-1-yl)ethylsulfonamide] | – |
| 100% | 17 nM | – | – | – | Cc1c(N(CCC2CC2)S(=O)(=O)CCN(CC(C)C)CC(C)C)sc2ccccc12 [Cpd 74, N-(3-Methylbenzo[b]thiophen-2-yl)-N-(2-cyclopropyl-ethyl)-2-(diisobutylamino)ethylsulfonamide] | 26% |
| 72% | 74 nM | – | – | – | Cc1c(N(Cc2ccc(OC(F)(F)F)cc2)S(=O)(=O)CCNCCC(F)(F)F)sc2ccccc12 [Cpd 13, N-(3-Methylbenzo[b]thiophen-2-yl)-N-(4-trifluoromethoxy-benzyl)-2-(3,3,3-trifluoropropylamino)ethylsulfonamide] | – |
| 97% | 30 nM | – | – | – | O=S(=O)(CCN1CCCCC1)N(Cc1ccc(OC(F)(F)F)cc1)c1sc2ccccc2c1Cl [Cpd 3, N-(3-Chlorobenzo[b]thiophen-2-yl)-N-(4-trifluoromethoxy-benzyl)-2-(piperidin-1-yl)ethylsulfonamide] | – |
| 94% | 50 nM | – | – | – | Cc1c(N(Cc2ccc(OC(F)(F)F)cc2)S(=O)(=O)CCN(C)C(C)C)sc2ccccc12 [Cpd 8, N-(3-Methylbenzo[b]thiophen-2-yl)-N-(4-trifluoromethoxy-benzyl)-2-(methyl-isopropylamino)ethylsulfonamide] | – |
| 98% | 17 nM | – | – | – | Cc1c(N(Cc2ccc(OC(F)(F)F)cc2)S(=O)(=O)CCN2CCC(F)(F)CC2)sc2ccccc12 [Cpd 42, N-(3-Methylbenzo[b]thiophen-2-yl)-N-(4-trifluoromethoxy-benzyl)-2-(4,4-difluoropiperidin-1-yl)ethylsulfonamide] | – |
| 102% | 28 nM | – | – | – | CN(CCS(=O)(=O)N(Cc1ccc(OC(F)(F)F)cc1)c1sc2ccccc2c1Br)Cc1ccccc1 [Cpd 61, N-(3-Bromobenzo[b]thiophen-2-yl)-N-(4-trifluoromethoxy-benzyl)-2-(benzyl-methylamino)ethylsulfonamide] | – |
| 34% | – | – | – | – | Cc1c(N(CCCCC(F)(F)F)S(=O)(=O)CCN2CCC(C(=O)O)CC2)sc2ccccc12 [Cpd 86, N-(3-Methylbenzo[b]thiophen-2-yl)-N-(5,5,5-trifluoropent-1-yl)-2-(4-carboxypiperidin-1-yl)ethylsulfonamide] | – |
| 100% | 24 nM | – | – | – | Cc1c(N(Cc2ccc(OC(F)(F)F)cc2)S(=O)(=O)CCN2C[C@@H](C)O[C@@H](C)C2)sc2ccccc12 [Cpd 33, N-(3-Methylbenzo[b]thiophen-2-yl)-N-(4-trifluoromethoxy-benzyl)-2-(cis-2,6-dimethylmorpholin-4-yl)ethylsulfonamide] | – |
| 99% | 25 nM | – | – | – | Cc1c(N(Cc2ccc(F)cc2)S(=O)(=O)CCN(CC(C)C)CC(C)C)sc2ccccc12 [Cpd 76, N-(3-Methylbenzo[b]thiophen-2-yl)-N-(4-fluoro-benzyl)-2-(di-iso-butylamino)ethylsulfonamide] | – |
| 62% | – | – | – | – | CCCN(CCC)CCS(=O)(=O)N(Cc1ccc(OC(F)(F)F)cc1)c1ccc2ccccc2c1 [Cpd 50, N-(Naphth-2-yl)-N-(4-trifluoromethoxy-benzyl)-2-(di-propylamino)ethylsulfonamide] | – |
| 101% | 22 nM | – | – | – | CCCN(CCC)CCS(=O)(=O)N(Cc1ccc(OC(F)(F)F)cc1)c1sc2ccccc2c1Br [Cpd 5, N-(3-Bromobenzo[b]thiophen-2-yl)-N-(4-trifluoromethoxy-benzyl)-2-(di-propylamino)ethylsulfonamide] | – |
| 100% | 7 nM | – | – | – | Cc1c(N(Cc2ccc(OC(F)(F)F)cc2)S(=O)(=O)CCN2CCSCC2)sc2ccccc12 [Cpd 34, N-(3-Methylbenzo[b]thiophen-2-yl)-N-(4-trifluoromethoxy-benzyl)-2-(thiomorpholin-4-yl)ethylsulfonamide] | – |
| 97% | 49 nM | – | – | – | Cc1c(N(Cc2ccc(F)cc2)S(=O)(=O)CCN(C)Cc2ccccc2)sc2ccccc12 [Cpd 77, N-(3-Methylbenzo[b]thiophen-2-yl)-N-(4-fluoro-benzyl)-2-(benzyl-methylamino)ethylsulfonamide] | – |
| 89% | 59 nM | – | – | – | Cc1c(N(CCC2CC2)S(=O)(=O)CCN(C)Cc2ccccc2)sc2ccccc12 [Cpd 75, N-(3-Methylbenzo[b]thiophen-2-yl)-N-(2-cyclopropyl-ethyl)-2-(benzyl-methylamino)ethylsulfonamide] | – |
| 102% | 9 nM | – | – | – | O=S(=O)(CCN1CCCC(F)(F)C1)N(Cc1ccc(OC(F)(F)F)cc1)c1sc2ccccc2c1Br [Cpd 67, N-(3-Bromobenzo[b]thiophen-2-yl)-N-(4-trifluoromethoxy-benzyl)-2-(3,3-difluoropiperidin-1-yl)ethylsulfonamide] | – |
| 99% | 27 nM | – | – | – | Cc1c(N(Cc2ccc(OC(F)(F)F)cc2)S(=O)(=O)CCN2CCCC(C(F)(F)F)C2)sc2ccccc12 (centres unmarked) [Cpd 24, N-(3-Methylbenzo[b]thiophen-2-yl)-N-(4-trifluoromethoxy-benzyl)-2-(3-trifluoromethylpiperidin-1-yl)ethylsulfonamide] | – |
| 72% | 153 nM | – | – | – | CC(C)CN(CCS(=O)(=O)N(Cc1ccc(OC(F)(F)F)cc1)c1ccc2ccccc2c1)CC(C)C [Cpd 96, N-(Naphth-2-yl)-N-(4-trifluoromethoxy-benzyl)-2-(diisobutylamino)-ethylsulfonamide] | – |
| 102% | 72 nM | – | – | – | O=S(=O)(CCN1CCC(F)(F)C1)N(Cc1ccc(OC(F)(F)F)cc1)c1sc2ccccc2c1Br [Cpd 68, N-(3-Bromobenzo[b]thiophen-2-yl)-N-(4-trifluoromethoxy-benzyl)-2-(3,3-difluoropyrrolidin-1-yl)ethylsulfonamide] | – |
| 96% | 38 nM | – | – | – | CCCCN(CCCC)CCS(=O)(=O)N(Cc1ccc(OC(F)(F)F)cc1)c1sc2ccccc2c1Br [Cpd 62, N-(3-Bromobenzo[b]thiophen-2-yl)-N-(4-trifluoromethoxy-benzyl)-2-(di-n-butylamino)ethylsulfonamide] | – |
| 24% | – | – | – | – | CNCCS(=O)(=O)N(Cc1ccc(OC(F)(F)F)cc1)c1sc2ccccc2c1C [Cpd 48, N-(3-Methylbenzo[b]thiophen-2-yl)-N-(4-trifluoromethoxy-benzyl)-2-(methylamino)ethylsulfonamide] | – |
| 101% | 36 nM | – | – | – | Cc1c(N(Cc2ccc(F)c(F)c2)S(=O)(=O)CCN(C)Cc2ccccc2)sc2ccccc12 [Cpd 81, N-(3-Methylbenzo[b]thiophen-2-yl)-N-(3,4-difluoro-benzyl)-2-(benzyl-methylamino)ethylsulfonamide] | – |
